“Also recorded” adds a separate entry of the source. Read-outs that look alike come from different tables or passages of the source.
Key:
[1] = system: isolated mouse extensor digitorum longus (EDL) neuromuscular preparations, endowed with the α1_2βδε nAChR; assay: Nerve-evoked isometric twitch tension on isolated mouse EDL nerve-muscle preparations
Experimental: The onset of the contraction block was rapid at high 20-meSPX-G concentration, with a complete block of the twitch response within 60 min at concentrations above 10 nM.
Figure 2 (A) Nerve-evoked isometric twitch responses on isolated mouse extensor digitorum longus (EDL) before and after the action of 10 nM 20-meSPX-G; and (B) concentration-response curve for the action of 20-meSPX-G on nerve-evoked isometric twitch response. Data points represent the normalized twitch response, relative to the respective controls. Each point is the mean ± SEM of 4 nerve muscle preparations at 60 min toxin exposure.
Isometric twitch tension measurements were performed on isolated mouse EDL nerve-muscle preparations after rapid removal from euthanized animals. The isolated EDL nerve-muscle preparation was mounted in a silicone-lined bath perfused with a Krebs-Ringer solution of the following composition (in mM): NaCl 140, KCl 5, CaCl2 2, MgCl2 1, glucose 11, and HEPES 5 (pH 7.4), continuously perfused with pure O2 throughout the experiment. For muscle tension measurements, one of the muscle tendons was securely anchored onto the silicone-coated bath. The other tendon was attached to an isometric force displacement transducer (FT03, Grass Instruments, West Warwick, RI, USA) via an adjustable stainless-steel hook. Muscle twitches were induced either by motor nerve stimulation, or by direct electrical muscle stimulation with supramaximal 0.15 ms duration current pulses delivered by a stimulator (S-44 Grass Instruments), through an electrode assembly placed along the muscle length. The resting tension was monitored and kept constant for each tested preparation through a mobile micrometer stage. Signals from the force transducer were collected, and digitized with a Digidata-1322A A/D interface board (Axon Instruments, Union City, CA, USA), as previously reported.

[2] = system: mouse neuromuscular system; assay: In vivo compound muscle action potential (CMAP) recording after local i.m. injection in anesthetized mice
Source text: Figure 3 Effects of i.m. local injections of 20-meSPX-G in vivo on the mouse neuromuscular system. (A) Compound muscle action potentials (CMAPs) recorded from the tail muscle in response to caudal motor nerve stimulation (increasing intensities, scheme), before and at various times after injection of the cyclic imine toxin (35 pg/mouse); (B) time-course of the effects of 20-meSPX-G injections (1.75, 35 and 350.5 pg/mouse) on the CMAP maximal amplitude. Arrows indicate the time of injections; and (C) dose-response curve of the effects of 20-meSPX-G injections on the maximal CMAP amplitude. Each value represents the mean ± SEM of data obtained from 4–6 mice, and is expressed relatively to that obtained before injections. The sigmoid curve was obtained by nonlinear regression analysis through data points (R^2 ≥ 0.99). The 20-meSPX-G dose required to block 50% of the maximal CMAP amplitude (dashed lines) was 47 pg/mouse.
In vivo recordings from the neuromuscular system were done in mice anesthetized by isoflurane inhalation, with a minimally-invasive electrophysiological method using Qtrac software (Institute of Neurology, Queen Square, London, UK, 2013), as previously described. In brief, electrical stimulations were delivered at a constant frequency of 1.25 Hz to the caudal motor nerve (at the base of the tail) with surface electrodes, and the compound muscle action potential (CMAP) was recorded using needle-electrodes inserted into the tail muscle. 20-me-SPX-G, diluted in phosphate buffer saline containing <1% methanol, was injected intramuscularly (i.m.), between stimulation and ground electrodes, in a single bolus of 1.25−5 µL with a micro-syringe (10 μL volume). Continuous on-line recordings were started around six minutes before injections to determine the toxin and/or solvent effects, as a function of time, on selected excitability parameters, such as the CMAP amplitude and excitability threshold.

[3] = system: Torpedo muscle-type α1_2β1γδ nAChR; assay: Voltage-clamp recording of ACh-evoked currents in Xenopus oocytes microtransplanted with Torpedo nAChR; assay type: cell-based, Torpedo marmorata
Experimental: The fact that the amplitude of the ACh-evoked current was usually ≥1 µA (n = 6) was indicative of a good incorporation of the Torpedo muscle-type receptor into the oocyte membrane.
Torpedo marmorata fish were anaesthetized with 0.03% tricaine (Sigma-Aldrich, Saint Quentin Fallavier, France) in seawater, before surgical removal of electric organs. From sliced Torpedo electric organs, purified membranes enriched in the α1_2β1γδ nAChR were prepared at 4 °C in 5 mM glycine, using procedures described previously. Aliquots of the purified membranes were stored at –80 °C until use. Microtransplantation of Torpedo nAChR [39] consisted in a single microinjection of a membrane suspension (50 nL at 3.5 mg·mL^−1 protein) into the oocyte cytoplasm using a Nanoliter 2000 Micro4 Controller mounted on a microscope (World Precision Instruments, Inc., Hertfordshire, UK), as previously described.
Currents evoked by ACh were recorded with a two-microelectrode voltage-clamp amplifier (OC-725B, Warner Instrument Corp., Hamden, CT, USA) at −60 mV holding potential. Micro-electrodes had 0.5–1.5 MΩ tip resistances. A pCLAMP-9/Digidata-1322A system (Molecular Devices, Union City, CA, USA) was used for data recording. […]

human α7 nAChR = target: T1, human α7 nAChR (Homo sapiens, UniProt P36544); assay: Voltage-clamp recording of ACh-evoked currents in Xenopus oocytes expressing human α7 nAChR; assay type: cell-based; conditions: ACh 350 μM (EC50), 3 s, −60 mV; read-out: IC50, inhibition of ACh-evoked current
T1 construct: expressed in transfected cells; host or cells: Xenopus laevis oocytes
Experimental: Functional analysis of the action of 20-meSPX-G was also performed using voltage-clamp recordings in Xenopus oocytes previously transfected with human α7 or α4β2-encoding cDNAs.
Oocytes were obtained under anesthesia (ethyl-3-amino benzoate methanesulfonate salt solution (1 g·L^−1, Sigma-Aldrich, Saint Quentin Fallavier, France) from mature female Xenopus laevis frogs. Oocytes were recovered and placed in a medium containing no added calcium and containing (in mM): NaCl, 88; KCl, 2.5; MgCl2, 1; and HEPES, 5 (pH 7.6). After extensive washing with this solution, oocytes were transferred to a Barth’s solution containing (in mM): NaCl, 88; KCl, 1; MgSO4, 0.33; CaCl2, 0.41; MgSO4, 0.82; Ca(NO3)2, 0.33; NaHCO3, 2.4; and HEPES, 10 (pH = 7.2) supplemented with kanamycine 0.1 mg·mL^−1. Oocytes (stage V–VI) were defolliculated (manually) and microinjected with 50 nL of human α7 mRNA (0.1 μg·μL^−1), or with a 50 nL mixture of plasmids carrying the cDNA of α4 and β2 (0.3 μg·μL^−1, each). For micro-injection a Nanoliter 2000 Micro4 Controller (World Precision Instruments, Inc., Hertfordshire, UK) was used. […]
Currents evoked by ACh were recorded with a two-microelectrode voltage-clamp amplifier (OC-725B, Warner Instrument Corp., Hamden, CT, USA) at −60 mV holding potential. […]

human α4β2 nAChR [4] = target: T2, human α4β2 nAChR (Homo sapiens, UniProt P17787+P43681); assay: Voltage-clamp recording of ACh-evoked currents in Xenopus oocytes expressing human α4β2 nAChR; assay type: cell-based; conditions: ACh 150 μM (EC50), −60 mV; read-out: IC50, inhibition of ACh-evoked current
Source text: Oocytes were obtained under anesthesia (ethyl-3-amino benzoate methanesulfonate salt solution (1 g·L^−1, Sigma-Aldrich, Saint Quentin Fallavier, France) from mature female Xenopus laevis frogs. Oocytes were recovered and placed in a medium containing no added calcium and containing (in mM): NaCl, 88; KCl, 2.5; MgCl2, 1; and HEPES, 5 (pH 7.6). After extensive washing with this solution, oocytes were transferred to a Barth’s solution containing (in mM): NaCl, 88; KCl, 1; MgSO4, 0.33; CaCl2, 0.41; MgSO4, 0.82; Ca(NO3)2, 0.33; NaHCO3, 2.4; and HEPES, 10 (pH = 7.2) supplemented with kanamycine 0.1 mg·mL^−1. Oocytes (stage V–VI) were defolliculated (manually) and microinjected with 50 nL of human α7 mRNA (0.1 μg·μL^−1), or with a 50 nL mixture of plasmids carrying the cDNA of α4 and β2 (0.3 μg·μL^−1, each). For micro-injection a Nanoliter 2000 Micro4 Controller (World Precision Instruments, Inc., Hertfordshire, UK) was used. Oocytes that were microinjected were incubated at 18 °C in Barth’s solution, and electrophysiological recordings were performed 3−4 days after microinjection.
Currents evoked by ACh were recorded with a two-microelectrode voltage-clamp amplifier (OC-725B, Warner Instrument Corp., Hamden, CT, USA) at −60 mV holding potential. Micro-electrodes had 0.5–1.5 MΩ tip resistances. […]

[5] = target: Torpedo muscle-type α1_2β1γδ nAChR; assay: Competition binding with [125I]α-BTX on Torpedo membranes; parameters: species or system Torpedo marmorata; conditions: for Ki: [125I]α-BTX, equilibrium 4 h, mean ± SEM
[6] = target: T3, chick chimeric α7-5HT3 nAChR (UniProt P22770+P23979, M226I/T225I); assay: Competition binding with [125I]α-BTX on HEK-293 cells expressing chimeric α7-5HT3 nAChR
T3 construct: expressed in transfected cells; host or cells: HEK-293

human α3β2 nAChR = target: T4, human α3β2 nAChR (Homo sapiens, UniProt P17787+P32297); assay: Competition binding with [3H]epibatidine on HEK-293 cells expressing human α3β2 nAChR; conditions: 4 h, mean ± SEM
T4 construct: expressed in transfected cells; host or cells: HEK-293

mouse = conditions: cited from earlier work; for LD50: mouse
human α4β2 nAChR [7] = target: T2, human α4β2 nAChR; assay: Competition binding with [3H]epibatidine on HEK-293 cells expressing human α4β2 nAChR; parameters: expressed in transfected cells; host or cells: HEK-293
[8] = system: mouse neuromuscular system; conditions: local injection, mice; cited from earlier work
[9] = target: Torpedo muscle-type α1_2β1γδ nAChR; conditions: previously reported; cited from earlier work
[10] = acyclic aminoketone spirolides; cited from earlier work
[11] = target: Torpedo muscle-type α1_(2)β1γδ nicotinic acetylcholine receptor (Torpedo marmorata (endogenous in electric organ)) (UniProt P02711); assay: radioligand binding
[12] = i.m. injection, anesthetized mice, corresponding to 47 pg/mouse

20-methyl spirolide G [20-meSPX-G]
reversal of neuromuscular transmission block by wash-out ([1]; continuous wash-out for 30 min with spirolide-free medium): not completely reversed
IC50 ([1]; isolated mouse EDL, 60 min toxin exposure, read-out: IC50, block of nerve-evoked muscle contractions): 4.8 nM
concentration giving complete block of the twitch response within 60 min ([1]; nerve-evoked isometric twitch, isolated mouse EDL): above 10 nM
effect on contractions elicited by direct electrical muscle stimulation ([1]; when nerve-evoked twitch was blocked (10 nM)): lack of a direct effect; also recorded: no action
onset of the effect on CMAP amplitude ([2]; 1.75 pg/mouse i.m.): 15.8 ± 1.9 min
block of CMAP amplitude ([2]; 1.75 pg/mouse i.m., mean): 9%
block of CMAP amplitude ([2]; 350.5 pg/mouse i.m.): 91%
onset of the effect on CMAP amplitude ([2]; 350.5 pg/mouse i.m.): 7.7 ± 2.1 min
CMAP maximal amplitude after spontaneous recovery, relative to controls ([2]; 35–87.6 pg/mouse i.m.): 78.5%
time for CMAP maximal amplitude to return to 78.5% of controls ([2]; 35–87.6 pg/mouse i.m.): ≤ 53.3 ± 19.6 min
ED50, dose required to block 50% of the maximal CMAP amplitude ([2]; i.m. injection, anesthetized mice): 47 pg/mouse
ED50 (also called IC50), block of maximal CMAP amplitude [2, 12]: 0.0017 µg/kg
ED50, block of maximal CMAP amplitude [2, 12]: 2.4 pmol/kg
agonist action ([3]; 3.1 nM toxin applied alone, −60 mV): no agonist action
IC50 ([3]; ACh 25 µM (EC50), −60 mV holding potential, read-out: IC50, inhibition of ACh-evoked current): 0.36 nM
IC50 (human α7 nAChR): 0.48 nM
IC50 (human α4β2 nAChR [4]): 2.1 nM
Ki [5]: 0.028 ± 0.005 nM
fold lower affinity than α-toxin from Naja nigricollis ([5]; from Ki values of Table 1): about 2.5 fold
Ki ([6]; [125I]α-BTX, HEK-293 cells, mean ± SEM): 0.11 ± 0.08 nM
times more active than MLA ([6]; α7 / chimeric α7-5HT3, from Ki values): about 7.5 times
Ki (human α3β2 nAChR): 0.04 ± 0.001 nM
lethality (mouse; mice, i.p. administration of 0.063 mg·kg^−1): absence of lethality
LD50 (mouse; by feeding): 630 µg/kg
LD50 (mouse; intraperitoneal (i.p.) injection): 8 µg/kg
LD50 (mouse; orally by gavage): 160 µg/kg
fold lower affinity in human α4β2 than in human α3β2 nAChR (human α4β2 nAChR [7]; [3H]epibatidine competition binding): 90 fold
Ki (human α4β2 nAChR [7]; [3H]epibatidine, HEK-293 cells, 4 h, mean ± SEM): 3.6 ± 0.07 nM

C=C1CCCC2=NC[C@H](C)[C@@H](C)C[C@@]23CCC([C@@H]2C=C(C)C(=O)O2)=C(C)[C@@H]3/C=C(\C)[C@@H](O)C[C@@H]2CC[C@@]3(CC[C@@]4(O[C@@H](CC[C@@]4(C)O)C1)O3)O2 [13-desmethyl spirolide C]
IC50, reduction of CMAP amplitude in vivo [8]: 6 ng/kg
Ki [9]: 0.08 nM

COc1cc2c3cc1Oc1cc(ccc1O)C[C@@H]1c4c(cc(OC)c(O)c4Oc4ccc(cc4)C[C@@H]3N(C)CC2)CC[N+]1(C)C [d-tubocurarine, reference compound]
fold higher concentration needed for a similar degree of neuromuscular blockade (IC50) compared with 20-meSPX-G ([1]; comparison with literature value): 75 fold

C=C1CCCC2=NC[C@H](C)[C@@H](C)C[C@@]23CCC(C(=O)O)=C[C@@H]3[C@@H]2O[C@]3(C[C@H]4CCC[C@@]5(CC[C@@]6(O[C@@H](CC[C@@]6(C)O)C1)O5)O4)C[C@@H](C)[C@@H](O)[C@H]2O3 [pinnatoxin A]
Ki [9]: 2.8 nM

C=C(CCCC(=O)C1(CCC(C)CN)CCC(C2C=C(C)C(=O)O2)=C(C)C1/C=C(\C)C(O)CC)CC1CCC(C)(O)C2(CCC3(CC(C)CO3)O2)O1 (stereo not drawn) [spirolide E]
toxicity [10]: no toxicity

spirolide F
toxicity [10]: no toxicity

α-toxin from Naja nigricollis (from UniProt P01426 1-61) (natural protein)
Ki [11]: 0.011 nM

B1: α-Toxin (snake): α-toxin from Naja nigricollis, a short-chain curaremimetic toxin (61 residues and four disulfides), synthesized (protein)
chain: LECHNQQSSQPPTTKTCPGETNCYKKVWRDHRGTIIERGCGCPTVKPGIKLNCCTTDKCNN
modifications: disulfide (positions not given here)
notes: α-toxin from Naja nigricollis, a short-chain curaremimetic toxin (61 residues and four disulfides), synthesized
Ki [5]: 0.011 ± 0.002 nM
